Read-outs that look alike come from different tables or passages of the source.
What was measured:
[1] = molecular target: T1, aldose reductase (Bos taurus, UniProt P16116); assay: in vitro aldose reductase inhibition (modified Hayman and Kinoshita; enzyme from bovine lens); assay type: biochemical; details: read-out: % Inhibition IN VITRO
T1 construct: preparation of the enzyme from bovine lens; from tissue; host or cells: bovine lens
Method: Only two minor reagent changes were made: (a) The rinsing mixture was an aqueous 5% (w/v) trichloroacetic acid solution and (b) the stock solution was prepared by dissolving 25 mg of dulcitol in 100 ml of an aqueous trichloroacetic acid solution. [N.B.: For each experiment the average value found in the tissue from rats fed the glucose diet was subtracted from the individual values found in the corresponding tissue in galactose-fed rats to obtain the amount of polyol accumulated.] […] In the present case the procedure of Hayman and Kinoshita was modified in that the final chromatography step was omitted in the preparation of the enzyme from bovine lens. […] The figures under L and N represent the percentage decrease of dulcitol accumulation in the tissues of the lens and sciatic nerve, respectively, for treated rats as compared to untreated rats.

[2] = system: dulcitol accumulation in the lens; assay: % lowering of dulcitol accumulation in lens (L) of galactosemic rats; assay type: in vivo, Sprague-Dawley; design: key: NS: statistically nonsignificant change; details: 4 days
From the text: (§1) The aldose reductase inhibiting property of the compounds of this invention and the utilization of the compounds in preventing, diminishing and alleviating diabetic complications are demonstrable in experiments using galactosemic rats, see Dvornik et al., Science, 182, 1146 (1973). Such experiments are exemplified hereinbelow after the listing of the following general comments pertaining to these experiments:
(§2) (a) Four or more groups of six male rats, 50-70 g, Sprague-Dawley strain, were used. The first group, the control group, was fed a mixture of laboratory chow (rodent Laboratory Chow, Purina) and glucose at 20% (w/w %) concentration. An untreated galactosemic group was fed a similar diet in which galactose was substituted for glucose. The third group was fed a diet prepared by mixing a given amount of the test compound with the galactose containing diet. The concentration of galactose in the diet of the treated groups was the same as that for the untreated galactosemic group.
(§3) (b) After four days, the animals were killed by euthanization. Both the lens and sciatic nerve were removed, weighed and stored frozen for polyol determination.
(§4) (c) The polyol determination was performed by a modification of the procedure of M. Kraml and L. Cosyns, Clin. Biochem., 2,373 (1969). Only two minor reagent changes were made: (a) The rinsing mixture was an aqueous 5% (w/v) trichloroacetic acid solution and (b) the stock solution was prepared by dissolving 25 mg of dulcitol in 100 ml of an aqueous trichloroacetic acid solution. [N.B.: For each experiment the average value found in the tissue from rats fed the glucose diet was subtracted from the individual values found in the corresponding tissue in galactose-fed rats to obtain the amount of polyol accumulated.] The aldose reductase inhibiting effects of the compounds of formula (I) were also tested by employing an in vitro testing procedure similar to that described by S. Hayman and J.H. Kinoshita, J. Biol. Chem., 240,877 (1965). In the present case the procedure of Hayman and Kinoshita was modified in that the final chromatography step was omitted in the preparation of the enzyme from bovine lens.
(§5) The figures under L and N represent the percentage decrease of dulcitol accumulation in the tissues of the lens and sciatic nerve, respectively, for treated rats as compared to untreated rats.

[3] = system: dulcitol accumulation in the sciatic nerve; assay: % lowering of dulcitol accumulation in sciatic nerve (N) of galactosemic rats; assay type: in vivo, Sprague-Dawley; design: key: NS: statistically nonsignificant change; details: 4 days
From the text: as §1, §2, §3, §4, §5

inhibition at 10 µM ([1]; 10^-5 M)	inhibition at 1 µM ([1]; 10^-6 M)	SMILES	inhibition at 0.04 µM ([1]; 4 × 10^-8 M)	inhibition at 0.1 µM ([1]; 10^-7 M)	% Lowering Dulcitol Accumulation IN VIVO, L (lens) ([2]; 1.0 mg/kg in diet)	% Lowering Dulcitol Accumulation IN VIVO, N (sciatic nerve) ([3]; 1.0 mg/kg in diet)	inhibition at 1 µM [1]	inhibition at 10 µM [1]	% Lowering Dulcitol Accumulation IN VIVO, L (lens) ([2]; 0.5 mg/kg in diet)	% Lowering Dulcitol Accumulation IN VIVO, N (sciatic nerve) ([3]; 0.5 mg/kg in diet)	also measured
100%	97%	O=C1CC2(C(=O)N1)C(=O)N(Cc1ccc(Cl)c(Cl)c1)C(=O)c1ccccc12 (stereo not drawn) [2-[(3,4-Dichlorophenyl)methyl]spiro[isoquinoline-4(1H),3'-pyrrolidine]-1,2',3,5'(2H)-tetrone]	42%	87%	10.0%	64.0%	–	–	–	–	% Lowering Dulcitol Accumulation IN VIVO, L (lens) ([2]; 3.0 mg/kg in diet): 18.0%; % Lowering Dulcitol Accumulation IN VIVO, L (lens) ([2]; 10.0 mg/kg in diet): 35.0%; % Lowering Dulcitol Accumulation IN VIVO, L (lens) ([2]; 48.0 mg/kg in diet): 41.0%; % Lowering Dulcitol Accumulation IN VIVO, N (sciatic nerve) ([3]; 3.0 mg/kg in diet): 76.0%; % Lowering Dulcitol Accumulation IN VIVO, N (sciatic nerve) ([3]; 10.0 mg/kg in diet): 92.0%; % Lowering Dulcitol Accumulation IN VIVO, N (sciatic nerve) ([3]; 48.0 mg/kg in diet): 85.0%
–	–	O=C1CC2(C(=O)N1)C(=O)N(Cc1ccc(Br)cc1F)C(=O)c1ccccc12 (stereo not drawn) [2-[(4-Bromo-2-fluorophenyl)methyl]spiro[isoquinoline-4(1H),3'-pyrrolidine]-1,2',3,5'(2H)-tetrone]	51%	–	16.0%	95.0%	94%	96%	12.0%	82.0%	inhibition at 0.1 µM [1]: 94%; % Lowering Dulcitol Accumulation IN VIVO, L (lens) ([2]; 0.1 mg/kg in diet): NS; % Lowering Dulcitol Accumulation IN VIVO, L (lens) ([2]; 0.3 mg/kg in diet): NS; % Lowering Dulcitol Accumulation IN VIVO, N (sciatic nerve) ([3]; 0.1 mg/kg in diet): 26.0%; % Lowering Dulcitol Accumulation IN VIVO, N (sciatic nerve) ([3]; 0.3 mg/kg in diet): 60.0%
100%	100%	CN1C(=O)c2ccc(Br)cc2C2(CC(=O)NC2=O)C1=O (stereo not drawn) [6-Br H CH3, 6-Bromo-2-methylspiro[isoquinoline-4(1H),3'-pyrrolidine]-1,2',3,5'(2H)-tetrone]	43%	85%	NS	54%	–	–	–	–	–
–	–	CN1C(=O)c2ccc(Cl)cc2C2(CC(=O)NC2=O)C1=O (stereo not drawn) [6-Cl H CH3, 6-Chloro-2-methylspiro[isoquinoline-4(1H)3'-pyrrolidine]-1,2',3,5'(2H)-tetrone]	43%	73%	33%	75%	94%	93%	–	–	% Lowering Dulcitol Accumulation IN VIVO, L (lens) ([2]; 3.0 mg/kg in diet): 59%; % Lowering Dulcitol Accumulation IN VIVO, N (sciatic nerve) ([3]; 3.0 mg/kg in diet): 75%
–	–	O=C1C[C@@]2(C(=O)N1)C(=O)N(Cc1ccc(Br)cc1F)C(=O)c1ccccc12 [(R)-(+)-2-[(4-Bromo-2-fluorophenyl)methyl]spiro[isoquinoline-4(1H),3'-pyrrolidine]-1,2',3,5'(2H)-tetrone]	87%	91%	–	–	93%	96%	NS	83%	% Lowering Dulcitol Accumulation IN VIVO, L (lens) ([2]; 5.1 mg/kg in diet): NS; % Lowering Dulcitol Accumulation IN VIVO, N (sciatic nerve) ([3]; 5.1 mg/kg in diet): 100%
–	–	O=C1C[C@@]2(C(=O)N1)C(=O)N(Cc1ccc(Br)cc1F)C(=O)c1ccc(F)cc12 [(R)-(+)-[2-[(4-Bromo-2-fluorophenyl)methyl]-6-fluoro]spiro[isoquinoline-4(1H),3'-pyrrolidine]-1,2',3,5'(2H)-tetrone]	–	–	–	–	95%	99%	–	–	inhibition at 0.04 µM [1]: 93%; inhibition at 0.1 µM [1]: 93%; % Lowering Dulcitol Accumulation IN VIVO, L (lens) ([2]; 0.4 mg/kg in diet): 31%; % Lowering Dulcitol Accumulation IN VIVO, L (lens) ([2]; 0.8 mg/kg in diet): 26%; % Lowering Dulcitol Accumulation IN VIVO, N (sciatic nerve) ([3]; 0.4 mg/kg in diet): 100%; % Lowering Dulcitol Accumulation IN VIVO, N (sciatic nerve) ([3]; 0.8 mg/kg in diet): 100%
87%	51%	O=C1C[C@]2(C(=O)N1)C(=O)N(Cc1ccc(Br)cc1F)C(=O)c1ccccc12 [(S)-(-)-2-[(4-Bromo-2-fluorophenyl)methyl]spiro[isoquinoline-4(1H),3'-pyrrolidine]-1,2',3,5'(2H)-tetrone]	–	–	–	–	–	–	NS	NS	% Lowering Dulcitol Accumulation IN VIVO, L (lens) ([2]; 4.8 mg/kg in diet): NS; % Lowering Dulcitol Accumulation IN VIVO, N (sciatic nerve) ([3]; 4.8 mg/kg in diet): 83%
